Assay results as given in US20240199598A1 (MITOIMMUNE THERAPEUTICS INC., priority 2021, published 2024).

Legend:
[1] = Stability test of Crystalline form III of sulfate (light, dark, 60° C., 40° C./75% RH); type: physicochemical
Protocol: The chemical and physical stability of Crystalline form III were studied under conditions of light, light-shielding, 60° C. and 40° C./75% RH for 1 month. […] In the light stability test, the crystalline form was stored in a light stability test chamber without a lid and thus exposed to a total illuminance of 1.2 million lux-hr, and a sample vial completely covered with an aluminum foil was regarded as a light-shielded control (Dark control). Appearance by visual observation for 2 weeks, 1 month, 2 months and 3 months was recorded, and purity assessment and XPRD data collection for residual solid contents were performed.

[2] = Persistence of Crystalline form VIII under nitrogen and on exposure to air (XRPD); type: physicochemical
Protocol: A novel crystalline form was found by heating Crystalline form IV to remove water and maintaining the same for 10 minutes and named Crystalline form VIII.

[3] = Oral administration pharmacokinetic test using mice; details: mice, oral; for AUClast / Cmax / Tmax / t½: 10 mg/kg; for Pharmacokinetic test, t½: summary Table 9
[4] = Physicochemical stability test of free form and 5 salts (60° C., 40° C./75% humidity, light); details: for Final purity: HPLC; for Chemical stability (purity change %/1 w), 40° C./75% RH / Chemical stability (purity change %/1 w), 60° C. / Chemical stability (purity change %/1 w), Light stability: summary Table 9; for Sensitivity to heat, humidity and light conditions (in words): 40° C./75% humidity
Protocol: In the case of a light stability test, the vial was stored in a light stability test chamber while being not closed with a lid, and exposed to a total illuminance of 1.2 million lux-hr. A vial light-shielded with aluminum foil was used as an experimental control (Dark control). For stability assessment, state assessment by visual observation, purity assessment using HPLC, and crystalline form assessment using XRPD were conducted, and results thereof are shown in Table 7. […] In FIGS. 19 to 30, “Light” represents light irradiation condition results.

[5] = Dark control (light-shielded vial)

O=S(=O)(O)O.O=S1(=O)CCN(Cc2cc(NC3CCOCC3)c3[nH]c(-c4ccccc4)cc3c2)CC1
Area (%), impurity peak 3 (RRT 0.67) ([1]; 1.2 million lux-hr): 0.226%
Area (%), impurity peak 10 (RRT 1.24) ([1]; 1.2 million lux-hr): 0.221%
Area (%), impurity peak 12 (RRT 1.42) ([1]; 1.2 million lux-hr): 0.073%
Area of Sulfate (%), peak 7 (RRT 1.00, main peak) ([1]; 1.2 million lux-hr): 99.382%
Area (%), impurity peak 2 (RRT 0.63) ([1]; 40° C./75% RH, 1 M): 0.183%
Area (%), impurity peak 4 (RRT 0.68) ([1]; 40° C./75% RH, 1 M): 0.061%
Area (%), impurity peak 6 (RRT 0.91) ([1]; 40° C./75% RH, 1 M): 0.102%
Area (%), impurity peak 9 (RRT 1.12) ([1]; 40° C./75% RH, 1 M): 0.518%
Area (%), impurity peak 11 (RRT 1.32) ([1]; 40° C./75% RH, 1 M): 0.149%
Area of Sulfate (%), peak 7 (RRT 1.00, main peak) ([1]; 40° C./75% RH, 1 M): 98.711%
Area (%), impurity peak 1 (RRT 0.50) ([1]; 40° C./75% RH, 2 W): 0.069%
Area (%), impurity peak 3 (RRT 0.67) ([1]; 40° C./75% RH, 2 W): 0.226%
Area (%), impurity peak 10 (RRT 1.24) ([1]; 40° C./75% RH, 2 W): 0.321%
Area (%), impurity peak 12 (RRT 1.42) ([1]; 40° C./75% RH, 2 W): 0.084%
Area of Sulfate (%), peak 7 (RRT 1.00, main peak) ([1]; 40° C./75% RH, 2 W): 98.769%
Area (%), impurity peak 2 (RRT 0.63) ([1]; 60° C., 1 M): 0.168%
Area (%), impurity peak 4 (RRT 0.68) ([1]; 60° C., 1 M): 0.056%
Area (%), impurity peak 9 (RRT 1.12) ([1]; 60° C., 1 M): 0.325%
Area (%), impurity peak 11 (RRT 1.32) ([1]; 60° C., 1 M): 0.088%
Area of Sulfate (%), peak 7 (RRT 1.00, main peak) ([1]; 60° C., 1 M): 99.247%
Area (%), impurity peak 3 (RRT 0.67) ([1]; 60° C., 2 W): 0.231%
Area (%), impurity peak 5 (RRT 0.82) ([1]; 60° C., 2 W): 0.052%
Area (%), impurity peak 8 (RRT 1.11) ([1]; 60° C., 2 W): 0.114%
Area (%), impurity peak 10 (RRT 1.24) ([1]; 60° C., 2 W): 0.211%
Area (%), impurity peak 12 (RRT 1.42) ([1]; 60° C., 2 W): 0.054%
Area of Sulfate (%), peak 7 (RRT 1.00, main peak) ([1]; 60° C., 2 W): 99.237%
Area (%), impurity peak 3 (RRT 0.67) ([1]; Dark control): 0.209%
Area (%), impurity peak 8 (RRT 1.11) ([1]; Dark control): 0.069%
Area (%), impurity peak 12 (RRT 1.42) ([1]; Dark control): 0.078%
Area of Sulfate (%), peak 7 (RRT 1.00, main peak) ([1]; Dark control): 99.326%
Area (%), impurity peak 3 (RRT 0.67) ([1]; Initial): 0.204%
Area (%), impurity peak 8 (RRT 1.11) ([1]; Initial): 0.069%
Area (%), impurity peak 10 (RRT 1.24) ([1]; Initial): 0.215%
Area (%), impurity peak 12 (RRT 1.42) ([1]; Initial): 0.08%
Area of Sulfate (%), peak 7 (RRT 1.00, main peak) ([1]; Initial): 99.319%

O=S1(=O)CCN(Cc2cc(NC3CCOCC3)c3[nH]c(-c4ccccc4)cc3c2)CC1 [Crystalline form VIII]
Time until the crystalline form disappeared ([2]; exposed to air, changes to Crystalline form IV): ≤ 1 h
Persistence of the crystalline form (in words) ([2]; nitrogen filling protection after cooling to 25° C.): maintained upon nitrogen filling protection after cooling to 25 °C

Cl.O=S1(=O)CCN(Cc2cc(NC3CCOCC3)c3[nH]c(-c4ccccc4)cc3c2)CC1 [Hydrochloride]
AUClast [3]: 12261.43 ng·h/mL
Cmax [3]: 2381.1 ng/mL
Tmax [3]: 2 h
t½ [3]: 3.0 h
Pharmacokinetic test, t½ [3]: 3 h
Assay ([4]; 1.2 million lux-hr): 108.65%
Purity change ([4]; 1.2 million lux-hr): 0%
XRPD patterns ([4]; 1.2 million lux-hr): Pattern 1-I
Final purity ([4]; 1.2 million lux-hr): 99.95%
Appearance ([4]; 40° C./75% RH, 1 w): White powder
Assay ([4]; 40° C./75% RH, 1 w): 109.18%
Purity change ([4]; 40° C./75% RH, 1 w): −0.55%
XRPD patterns ([4]; 40° C./75% RH, 1 w): Pattern 1-I
Final purity ([4]; 40° C./75% RH, 1 w): 99.40%
Chemical stability (purity change %/1 w), 40° C./75% RH ([4]; 40° C./75% RH, 1 w): −0.05%
Appearance ([4]; 60° C., 1 w): White powder
Assay ([4]; 60° C., 1 w): 110.29%
Purity change ([4]; 60° C., 1 w): +0.05%
XRPD patterns ([4]; 60° C., 1 w): Pattern 1-I
Final purity ([4]; 60° C., 1 w): 100.0%
Chemical stability (purity change %/1 w), 60° C. ([4]; 60° C., 1 w): 0.18%
Sensitivity to heat, humidity and light conditions (in words) ([4]; 60° C., 1.2 million lux-hr): sensitive under a humidity condition
Assay ([4]; Dark control): 108.99%
Purity change ([4]; Dark control): +0.05%
XRPD patterns ([4]; Dark control): Pattern 1-I
Appearance [4, 5]: White powder
Final purity ([4]; Dark control): 100.0%
Chemical stability (purity change %/1 w), Light stability [4]: 0%

O=C(O)/C=C\C(=O)O.O=S1(=O)CCN(Cc2cc(NC3CCOCC3)c3[nH]c(-c4ccccc4)cc3c2)CC1 [Maleate]
AUClast [3]: 15780.45 ng·h/mL
Cmax [3]: 3115.9 ng/mL
Tmax [3]: 0.5 h
t½ [3]: 2.8 h
Pharmacokinetic test, t½ [3]: 3 h
Assay ([4]; 1.2 million lux-hr): 109.56%
Purity change ([4]; 1.2 million lux-hr): −0.17%
XRPD patterns ([4]; 1.2 million lux-hr): Pattern 7-I
Final purity ([4]; 1.2 million lux-hr): 96.86%
Appearance ([4]; 40° C./75% RH, 1 w): Yellow powder
Assay ([4]; 40° C./75% RH, 1 w): 108.85%
Purity change ([4]; 40° C./75% RH, 1 w): −0.77%
XRPD patterns ([4]; 40° C./75% RH, 1 w): Pattern 7-I
Final purity ([4]; 40° C./75% RH, 1 w): 96.26%
Chemical stability (purity change %/1 w), 40° C./75% RH ([4]; 40° C./75% RH, 1 w): −0.77%
Appearance ([4]; 60° C., 1 w): Yellow powder
Assay ([4]; 60° C., 1 w): 110.00%
Purity change ([4]; 60° C., 1 w): −0.44%
XRPD patterns ([4]; 60° C., 1 w): Pattern 7-I
Final purity ([4]; 60° C., 1 w): 96.59%
Chemical stability (purity change %/1 w), 60° C. ([4]; 60° C., 1 w): −0.44%
Sensitivity to heat, humidity and light conditions (in words) ([4]; 60° C., 1.2 million lux-hr): sensitive under all conditions including heat, humidity and light irradiation conditions
Assay ([4]; Dark control): 109.66%
Purity change ([4]; Dark control): +0.01%
XRPD patterns ([4]; Dark control): Pattern 7-I
Appearance [4, 5]: Yellow powder
Final purity ([4]; Dark control): 97.04%
Chemical stability (purity change %/1 w), Light stability [4]: −0.17%

CS(=O)(=O)O.O=S1(=O)CCN(Cc2cc(NC3CCOCC3)c3[nH]c(-c4ccccc4)cc3c2)CC1 [Mesylate]
AUClast [3]: 10119.7 ng·h/mL
Cmax [3]: 2595.2 ng/mL
Tmax [3]: 0.5 h
t½ [3]: 2.3 h
Pharmacokinetic test, t½ [3]: 2 h
Assay ([4]; 1.2 million lux-hr): 102.69%
Purity change ([4]; 1.2 million lux-hr): −0.82%
XRPD patterns ([4]; 1.2 million lux-hr): Pattern 4-I
Final purity ([4]; 1.2 million lux-hr): 99.18%
Purity decrease ([4]; 40° C. RH for 1 week): ≥ 3%
Appearance ([4]; 40° C./75% RH, 1 w): White powder
Assay ([4]; 40° C./75% RH, 1 w): 101.35%
Purity change ([4]; 40° C./75% RH, 1 w): −3.29%
XRPD patterns ([4]; 40° C./75% RH, 1 w): Pattern 4-I
Final purity ([4]; 40° C./75% RH, 1 w): 96.71%
Chemical stability (purity change %/1 w), 40° C./75% RH ([4]; 40° C./75% RH, 1 w): −3.29%
Appearance ([4]; 60° C., 1 w): White powder
Assay ([4]; 60° C., 1 w): 107.36%
Purity change ([4]; 60° C., 1 w): 0%
XRPD patterns ([4]; 60° C., 1 w): Pattern 4-I
Final purity ([4]; 60° C., 1 w): 100.0%
Chemical stability (purity change %/1 w), 60° C. ([4]; 60° C., 1 w): 0%
Sensitivity to heat, humidity and light conditions (in words) ([4]; 60° C., 1.2 million lux-hr): sensitive under humidity and light conditions
Assay ([4]; Dark control): 103.03%
Purity change ([4]; Dark control): 0%
XRPD patterns ([4]; Dark control): Pattern 4-I
Appearance [4, 5]: White powder
Final purity ([4]; Dark control): 100.0%
Chemical stability (purity change %/1 w), Light stability [4]: −0.82%

Cc1ccc(S(=O)(=O)O)cc1.O=S1(=O)CCN(Cc2cc(NC3CCOCC3)c3[nH]c(-c4ccccc4)cc3c2)CC1 [Tosylate]
AUClast [3]: 18850.98 ng·h/mL
Cmax [3]: 3151.3 ng/mL
Tmax [3]: 0.5 h
t½ [3]: 2.8 h
Pharmacokinetic test, t½ [3]: 3 h
Assay ([4]; 1.2 million lux-hr): 105.78%
Purity change ([4]; 1.2 million lux-hr): −0.24%
XRPD patterns ([4]; 1.2 million lux-hr): Pattern 6-I
Final purity ([4]; 1.2 million lux-hr): 98.77%
Appearance ([4]; 40° C./75% RH, 1 w): White powder
Assay ([4]; 40° C./75% RH, 1 w): 107.73%
Purity change ([4]; 40° C./75% RH, 1 w): −0.01%
XRPD patterns ([4]; 40° C./75% RH, 1 w): Pattern 6-I
Final purity ([4]; 40° C./75% RH, 1 w): 99.00%
Chemical stability (purity change %/1 w), 40° C./75% RH ([4]; 40° C./75% RH, 1 w): −0.01%
Appearance ([4]; 60° C., 1 w): White powder
Assay ([4]; 60° C., 1 w): 108.33%
Purity change ([4]; 60° C., 1 w): −0.05%
XRPD patterns ([4]; 60° C., 1 w): Pattern 6-I
Final purity ([4]; 60° C., 1 w): 98.96%
Chemical stability (purity change %/1 w), 60° C. ([4]; 60° C., 1 w): −0.05%
Sensitivity to heat, humidity and light conditions (in words) ([4]; 60° C., 1.2 million lux-hr): sensitive to light
Assay ([4]; Dark control): 108.98%
Purity change ([4]; Dark control): −0.03%
XRPD patterns ([4]; Dark control): Pattern 6-I
Appearance [4, 5]: White powder
Final purity ([4]; Dark control): 98.98%
Chemical stability (purity change %/1 w), Light stability [4]: −0.24%
